The values that follow come from US9119780B2, “Triggerable compositions for two-stage, controlled release of proactive chemistry” (Kimberly-Clark Worldwide, Inc., priority 2013, dated 2015).

For this data set the following is noted: exposure to liquid water under ambient conditions.

Source text: The relative hydrophobicity and hydrophilicity of the R groups can be easily adjusted to tailor the hydrolysis rate upon exposure to aqueous medium, and therefore the release rate of the active R*OH.

For the molecule `CC1CCC(C(C)C)C(OC(=O)c2ccc[n+](C)c2)C1.[Cl-]` (centres unmarked), the hydrolysis rate result is given as “hydrolyzed rapidly”.

For `Cc1ccc(C(C)C)c(OC(=O)c2ccc[n+](C)c2)c1.[Cl-]`, the hydrolysis rate entry is “hydrolyzed rapidly”.
